Experimental data reported in patent publication US11992012B2, “Diaminotriazine compounds” (BASF SE, priority 2018, dated 2024).

Assays:
Assay in all cases: greenhouse pre-emergence herbicidal test
Format in all cases: in vivo
Conditions in all cases: 250 g/ha, scale 0 to 100
[1] = system: Amaranthus retroflexus
Text: (§1) The culture containers used were plastic flowerpots containing loamy sand with approximately 3.0% of humus as the substrate. The seeds of the test plants were sown separately for each species.
(§2) For the pre-emergence treatment, the active ingredients, which had been suspended or emulsified in water, were applied directly after sowing by means of finely distributing nozzles. The containers were irrigated gently to promote germination and growth and subsequently covered with transparent plastic hoods until the plants had rooted. This cover caused uniform germination of the test plants, unless this had been impaired by the active ingredients.
(§3) Depending on the species, the plants were kept at 10-25° C. or 20-35° C., respectively.
(§4) The test period extended over 2 to 4 weeks. During this time, the plants were tended, and their response to the individual treatments was evaluated.
(§5) Evaluation was carried out using a scale from 0 to 100. 100 means no emergence of the plants, or complete destruction of at least the aerial moieties, and 0 means no damage, or normal course of growth. A moderate herbicidal activity is given at values of at least 60, a good herbicidal activity is given at values of at least 70, and a very good herbicidal activity is given at values of at least 85.

[2] = system: Echinocloa crus-galli
Text: as §1, §2, §3, §4, §5

[3] = system: Alopercurus myosuroides
Text: as §1, §2, §3, §4, §5

[4] = system: Setaria faberi
Text: The culture containers used were plastic flowerpots containing loamy sand with approximately 3.0% of humus as the substrate. The seeds of the test plants were sown separately for each species. For the pre-emergence treatment, the active ingredients, which had been suspended or emulsified in water, were applied directly after sowing by means of finely distributing nozzles. The containers were irrigated gently to promote germination and growth and subsequently covered with transparent plastic hoods until the plants had rooted. This cover caused uniform germination of the test plants, unless this had been impaired by the active ingredients. […] The test period extended over 2 to 4 weeks. During this time, the plants were tended, and their response to the individual treatments was evaluated. Evaluation was carried out using a scale from 0 to 100. 100 means no emergence of the plants, or complete destruction of at least the aerial moieties, and 0 means no damage, or normal course of growth.

SMILES | herbicidal activity [1] [%] | herbicidal activity [2] [%] | herbicidal activity [3] [%] | herbicidal activity [4] [%]
CC(C)(F)c1nc(N)nc(Nc2c(F)cccc2OCc2ccccc2)n1 [Example 4] | 100 | 100 | 100 | 100
Nc1nc(Nc2c(F)cccc2OCc2ccccc2)nc(C2(F)CCCC2)n1 [Example 5] | 98 | 100 | 85 | 98
Cc1ccc(COc2cccc(F)c2Nc2nc(N)nc(C(C)(C)F)n2)cc1 [Example 9] | 95 | 100 | 80 | 100
COc1cccc(COc2cccc(F)c2Nc2nc(N)nc(C(C)(C)F)n2)c1 [Example 10] | 100 | 100 | 100 | 100
CC(C)(F)c1nc(N)nc(Nc2c(F)cccc2OCc2cccc(F)c2)n1 [Example 11] | 100 | 100 | 100 | 100
Nc1nc(Nc2c(F)cccc2OCc2cccc(F)c2)nc(C2(F)CCCC2)n1 [Example 18] | 70 | 70 | 70 | 85
Nc1nc(Nc2c(F)cccc2OCc2ccccc2F)nc(C2(F)CCCC2)n1 [Example 19] | 80 | – | 70 | 85
COc1ccc(COc2cccc(F)c2Nc2nc(N)nc(C(C)(C)F)n2)cc1 [Example 20] | 98 | 100 | 100 | 95
CC(C)(F)c1nc(N)nc(Nc2c(F)cccc2OCc2cnc(Cl)s2)n1 [Example 39] | 80 | 100 | 90 | 90
CC(C)(F)c1nc(N)nc(Nc2c(F)cccc2OCc2ccc(F)c(F)c2)n1 [Example 45] | – | 80 | 80 | 70
CC(C)(F)c1nc(N)nc(Nc2c(F)cc(F)cc2OCc2ccccc2)n1 [Example 60] | 100 | 100 | 98 | 100
CC(C)(F)c1nc(N)nc(Nc2c(OCc3ccccc3)cc(F)c(F)c2F)n1 [Example 69] | 100 | 100 | 100 | 100
CC(C)(F)c1nc(N)nc(Nc2c(F)cccc2OCc2c(Cl)cccc2Cl)n1 [Example 78] | – | 100 | 100 | 75
CC(C)(F)c1nc(N)nc(Nc2c(F)cccc2OC(F)(F)c2ccccc2)n1 [Example 83] | – | 100 | 100 | 100
COC(C)(C)c1nc(N)nc(Nc2c(F)cccc2OCc2ccccc2)n1 [Example 91] | 100 | 100 | 100 | 100
CCc1ccc(COc2cccc(F)c2Nc2nc(N)nc(C(C)(C)F)n2)cc1 [Example 94] | 70 | – | 100 | –
CC(F)(F)c1nc(N)nc(Nc2c(F)cccc2OCc2ccccc2)n1 [Example 96] | 100 | 100 | 80 | 95
COc1cccc(COc2cc(F)c(F)c(F)c2Nc2nc(N)nc(C(C)(C)F)n2)c1 [Example 98] | 90 | 100 | 80 | 100
CC(C)(F)c1nc(N)nc(Nc2c(F)cccc2OCc2ccsc2Cl)n1 [Example 107] | 75 | 100 | 75 | 100
CC(C)(F)c1nc(N)nc(Nc2c(F)cccc2OCc2ccc(Cl)s2)n1 [Example 120] | – | 100 | 75 | 90
CC(C)c1ccc(COc2cccc(F)c2Nc2nc(N)nc(C(C)(C)F)n2)cc1 [Example 143] | 100 | – | 90 | –
CCOc1cccc(COc2cccc(F)c2Nc2nc(N)nc(C(C)(C)F)n2)c1 [Example 149] | – | 75 | 85 | 90

SMILES | herbicidal activity [1] [%] | herbicidal activity [2] [%] | herbicidal activity [3] [%] | herbicidal activity [4] [%]
CC(C)=C(F)c1nc(N)nc(Nc2c(F)ccc(F)c2OCc2ccccc2)n1 [Example 160] | – | – | 85 | 75
CC(C)(F)c1nc(N)nc(Nc2c(F)c(Br)cc(F)c2OCc2ccccc2)n1 [Example 163] | – | 100 | 100 | 100
COc1cccc(COc2c(F)cc(F)c(F)c2Nc2nc(N)nc(C(C)(C)F)n2)c1 [Example 164] | – | 100 | 100 | 100
CC(C)(F)c1nc(N)nc(Nc2c(F)ccc(F)c2OCc2ccsc2)n1 [Example 174] | – | 100 | 100 | 100
CC(C)(F)c1nc(N)nc(Nc2c(F)cccc2OCc2c(F)cccc2Cl)n1 [Example 177] | – | 100 | 85 | 95
COc1ccc(COc2c(F)cc(F)c(F)c2Nc2nc(N)nc(C(C)(C)F)n2)cc1 [Example 180] | – | 100 | 90 | 100
Cc1ccccc1COc1c(F)cc(F)c(F)c1Nc1nc(N)nc(C(C)(C)F)n1 [Example 181] | – | 100 | 98 | 100
Cc1cccc(COc2c(F)cc(F)c(F)c2Nc2nc(N)nc(C(C)(C)F)n2)c1 [Example 182] | – | 100 | 100 | 100
Nc1nc(Nc2c(F)cccc2OCc2ccccc2)nc(C2(F)CC2)n1 [Example 184] | 95 | 98 | 85 | –
COc1cccc(COc2ccc(F)c(F)c2Nc2nc(N)nc(C(C)(C)F)n2)c1 [Example 185] | – | 100 | 98 | 100
Nc1nc(Nc2c(F)ccc(F)c2OCc2ccccc2)nc(C2(F)CC2)n1 [Example 187] | – | 100 | 85 | 100
Nc1nc(Nc2c(F)ccc(F)c2OCc2ccccc2)nc(C(F)C2CC2)n1 (centres unmarked) [Example 189] | – | 100 | 98 | 100
CCOc1ccc(COc2c(F)ccc(F)c2Nc2nc(N)nc(C(C)(C)F)n2)cc1 [Example 193] | – | 95 | 80 | 100
CC(F)c1nc(N)nc(Nc2c(F)ccc(F)c2OCc2ccccc2)n1 (centres unmarked) [Example 196] | – | 100 | 98 | 100
CC1(c2nc(N)nc(Nc3c(F)c(F)cc(F)c3OCc3ccccc3)n2)CCC1 [Example 201] | – | 100 | 100 | 100
CC(C)(F)c1nc(N)nc(Nc2c(F)c(F)cc(F)c2OCc2ccccc2F)n1 [Example 203] | – | 100 | 100 | 100
CC(C)(F)c1nc(N)nc(Nc2c(F)c(F)cc(F)c2OCc2ccc(F)cc2)n1 [Example 205] | – | 100 | 100 | 100
CC(C)(F)c1nc(N)nc(Nc2c(F)c(F)cc(F)c2OCc2ccccc2C2CC2)n1 [Example 218] | – | 85 | 95 | 100
COCc1ccc(COc2c(F)cc(F)c(F)c2Nc2nc(N)nc(C(C)(C)F)n2)cc1 [Example 220] | – | 95 | 98 | 90
COC(C)(C)c1nc(N)nc(Nc2c(F)c(F)cc(F)c2OCc2cccc(C)c2)n1 [Example 227] | – | 75 | 90 | 85
Cc1cccc(C)c1COc1c(F)cc(F)c(F)c1Nc1nc(N)nc(C(C)F)n1 (centres unmarked) [Example 255] | – | 95 | 90 | 90
